Patent US6613718B2, “Aryl ether derivatives and processes for their preparation and herbicidal and desiccant compositions containing them” (Ishihara Sangyo Kaisha, Ltd., priority 2001, dated 2003)

Key:
Assay type in all cases: in vivo
[1] = tested on: field corn (Zea mays L., var. Dekalb 535, CORN); assay: Post-emerge greenhouse screening, crop safety / corn selectivity (phytotoxicity rating); details: for CORN crop damage, phytotoxicity rating (0-100 scale): 14 days after application
Outline: (§1)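 Efficacy scores (0 = no damage; 100 = every plant killed) came from visual inspection 14 days after spraying. Compounds were delivered in acetone to sandy loam pots at 15-1000 g ai/ha, pre- or post-emergence.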

[2] = tested on: soybean (Glycine max L., var. Pella 86, SOY); assay: Post-emerge greenhouse screening, crop safety (phytotoxicity rating); details: 14 days after application
Outline: as §1

[3] = tested on: upland rice (Oryza sp., var.Tebonnet, RICE); assay: as above; details: 14 days after application
Outline: as §1

[4] = tested on: barnyardgrass (Echinochloa crus-galli, ECHCG); assay: Pre-emerge greenhouse herbicide activity screening, phytotoxicity rating; details: 14 days after application
Outline: as §1

[5] = tested on: lambsquarters (Chenopodium album, CHEAL); assay: as above; details: 14 days after application
Outline: as §1

[6] = tested on: redroot pigweed (Amaranthus retroflexus, AMARE); assay: as above; details: 14 days after application
Outline: as §1

[7] = tested on: common ragweed (Ambrosia artemisiifolia L., AMBEL); assay: as above; details: 14 days after application
Outline: as §1

[8] = tested on: large crabgrass (Digitaria sanguinalis, DIGSA); assay: as above; details: 14 days after application
Outline: as §1

[9] = tested on: velvetleaf (Abutilon theophrasti, ABUTH); assay: as above; details: 14 days after application
Outline: as §1

[10] = tested on: ivyleaf morningglory (Ipomoea hederacea, IPOHE); assay: as above; details: 14 days after application
Outline: as §1

[11] = tested on: sicklepod (Cassia obtusifolia, CASOB); assay: as above; details: 14 days after application
Outline: as §1

[12] = tested on: johnsongrass (Sorghum halepense, SORHA); assay: as above; details: 14 days after application
Outline: as §1

[13] = tested on: green foxtail (Setaria viridis, SETVI); assay: as above; details: 14 days after application
Outline: as §1

[14] = tested on: soybean (Glycine max L., var. Pella 86, SOY); assay: Pre-emerge greenhouse screening, crop safety (phytotoxicity rating); details: 14 days after application
Outline: as §1

[15] = tested on: upland rice (Oryza sp., var.Tebonnet, RICE); assay: as above; details: 14 days after application
Outline: as §1

[16] = tested on: field corn (Zea mays L., var. Dekalb 535, CORN); assay: as above; details: 14 days after application
Outline: as §1

[17] = tested on: barnyardgrass (Echinochloa crus-galli, ECHCG); assay: Post-emerge greenhouse herbicide activity screening, phytotoxicity rating; details: 14 days after application
Outline: as §1

[18] = tested on: lambsquarters (Chenopodium album, CHEAL); assay: as above
Outline: as §1

[19] = tested on: redroot pigweed (Amaranthus retroflexus, AMARE); assay: as above
Outline: as §1

[20] = tested on: common ragweed (Ambrosia artemisiifolia L., AMBEL); assay: as above
Outline: as §1

[21] = tested on: large crabgrass (Digitaria sanguinalis, DIGSA); assay: as above; details: 14 days after application
Outline: as §1

[22] = tested on: velvetleaf (Abutilon theophrasti, ABUTH); assay: as above; details: 14 days after application
Outline: as §1

[23] = tested on: ivyleaf morningglory (Ipomoea hederacea, IPOHE); assay: as above; details: 14 days after application
Outline: as §1

[24] = tested on: sicklepod (Cassia obtusifolia, CASOB); assay: as above
Outline: as §1

[25] = tested on: johnsongrass (Sorghum halepense, SORHA); assay: as above; details: 14 days after application
Outline: as §1

[26] = tested on: green foxtail (Setaria viridis, SETVI); assay: as above
Outline: as §1

[27] = 125 g ai/ha, 14 days after application
[28] = 250 g ai/ha, 14 days after application

Cn1c(=S)n(C)c(=O)n(-c2cc(Oc3ccccc3[N+](=O)[O-])c(Cl)cc2F)c1=O [Compound 2-17]
CORN selectivity, phytotoxicity rating (0-100 scale) ([1]; 62.5 g ai/ha): 3
CORN crop damage, phytotoxicity rating (0-100 scale) ([1]; 125 g ai/ha): 5
CORN crop damage, phytotoxicity rating (0-100 scale) ([1]; 250 g ai/ha): 8
SOY crop damage, phytotoxicity rating (0-100 scale) ([2]; 125 g ai/ha): 0
SOY crop damage, phytotoxicity rating (0-100 scale) ([2]; 250 g ai/ha): 25
RICE crop damage, phytotoxicity rating (0-100 scale) ([3]; 125 g ai/ha): 0
RICE crop damage, phytotoxicity rating (0-100 scale) ([3]; 250 g ai/ha): 0
ECHCG phytotoxicity rating (0-100 scale) ([4]; 125 g ai/ha): 30
ECHCG phytotoxicity rating (0-100 scale) ([4]; 250 g ai/ha): 30
CHEAL phytotoxicity rating (0-100 scale) ([5]; 125 g ai/ha): 100
CHEAL phytotoxicity rating (0-100 scale) ([5]; 250 g ai/ha): 100
AMARE phytotoxicity rating (0-100 scale) ([6]; 125 g ai/ha): 99
AMARE phytotoxicity rating (0-100 scale) ([6]; 250 g ai/ha): 100
AMBEL phytotoxicity rating (0-100 scale) ([7]; 125 g ai/ha): 0
AMBEL phytotoxicity rating (0-100 scale) ([7]; 250 g ai/ha): 0
DIGSA phytotoxicity rating (0-100 scale) ([8]; 125 g ai/ha): 60
DIGSA phytotoxicity rating (0-100 scale) ([8]; 250 g ai/ha): 80
ABUTH phytotoxicity rating (0-100 scale) ([9]; 125 g ai/ha): 60
ABUTH phytotoxicity rating (0-100 scale) ([9]; 250 g ai/ha): 70
IPOHE phytotoxicity rating (0-100 scale) ([10]; 125 g ai/ha): 30
IPOHE phytotoxicity rating (0-100 scale) ([10]; 250 g ai/ha): 50
CASOB phytotoxicity rating (0-100 scale) ([11]; 125 g ai/ha): 0
CASOB phytotoxicity rating (0-100 scale) ([11]; 250 g ai/ha): 30
SORHA phytotoxicity rating (0-100 scale) ([12]; 125 g ai/ha): 25
SORHA phytotoxicity rating (0-100 scale) ([12]; 250 g ai/ha): 50
SETVI phytotoxicity rating (0-100 scale) ([13]; 125 g ai/ha): 85
SETVI phytotoxicity rating (0-100 scale) ([13]; 250 g ai/ha): 98
SOY crop damage, phytotoxicity rating (0-100 scale) ([14]; 125 g ai/ha): 0
SOY crop damage, phytotoxicity rating (0-100 scale) ([14]; 250 g ai/ha): 10
RICE crop damage, phytotoxicity rating (0-100 scale) ([15]; 125 g ai/ha): 0
RICE crop damage, phytotoxicity rating (0-100 scale) ([15]; 250 g ai/ha): 0
CORN crop damage, phytotoxicity rating (0-100 scale) ([16]; 125 g ai/ha): 0
CORN crop damage, phytotoxicity rating (0-100 scale) ([16]; 250 g ai/ha): 0
ECHCG phytotoxicity rating (0-100 scale) ([17]; 125 g ai/ha): 0
ECHCG phytotoxicity rating (0-100 scale) ([17]; 250 g ai/ha): 25
CHEAL phytotoxicity rating (0-100 scale) ([18]; 31.3 g ai/ha): 90
CHEAL phytotoxicity rating (0-100 scale) ([18]; 62.5 g ai/ha): 90
CHEAL phytotoxicity rating (0-100 scale) [18, 27]: 95
CHEAL phytotoxicity rating (0-100 scale) [18, 28]: 95
AMARE phytotoxicity rating (0-100 scale) ([19]; 31.3 g ai/ha): 80
AMARE phytotoxicity rating (0-100 scale) ([19]; 62.5 g ai/ha): 80
AMARE phytotoxicity rating (0-100 scale) [19, 27]: 80
AMARE phytotoxicity rating (0-100 scale) [19, 28]: 80
AMBEL phytotoxicity rating (0-100 scale) ([20]; 31.3 g ai/ha): 50
AMBEL phytotoxicity rating (0-100 scale) ([20]; 62.5 g ai/ha): 50
AMBEL phytotoxicity rating (0-100 scale) [20, 27]: 60
AMBEL phytotoxicity rating (0-100 scale) [20, 28]: 75
DIGSA phytotoxicity rating (0-100 scale) ([21]; 125 g ai/ha): 0
DIGSA phytotoxicity rating (0-100 scale) ([21]; 250 g ai/ha): 35
ABUTH phytotoxicity rating (0-100 scale) ([22]; 125 g ai/ha): 95
ABUTH phytotoxicity rating (0-100 scale) ([22]; 250 g ai/ha): 98
IPOHE phytotoxicity rating (0-100 scale) ([23]; 125 g ai/ha): 0
IPOHE phytotoxicity rating (0-100 scale) ([23]; 250 g ai/ha): 0
CASOB phytotoxicity rating (0-100 scale) ([24]; 31.3 g ai/ha): 0
CASOB phytotoxicity rating (0-100 scale) ([24]; 62.5 g ai/ha): 0
CASOB phytotoxicity rating (0-100 scale) [24, 27]: 25
CASOB phytotoxicity rating (0-100 scale) [24, 28]: 65
SORHA phytotoxicity rating (0-100 scale) ([25]; 125 g ai/ha): 0
SORHA phytotoxicity rating (0-100 scale) ([25]; 250 g ai/ha): 0
SETVI phytotoxicity rating (0-100 scale) ([26]; 31.3 g ai/ha): 0
SETVI phytotoxicity rating (0-100 scale) ([26]; 62.5 g ai/ha): 0
SETVI phytotoxicity rating (0-100 scale) [26, 27]: 0
SETVI phytotoxicity rating (0-100 scale) [26, 28]: 0

N#Cc1c(-c2cc(Oc3ncccn3)c(Cl)cc2F)nn2c1CCCC2 [Compound 6-17]
CORN crop damage, phytotoxicity rating (0-100 scale) ([1]; 125 g ai/ha): 0
CORN crop damage, phytotoxicity rating (0-100 scale) ([1]; 250 g ai/ha): 5
SOY crop damage, phytotoxicity rating (0-100 scale) ([2]; 125 g ai/ha): 70
SOY crop damage, phytotoxicity rating (0-100 scale) ([2]; 250 g ai/ha): 70
RICE crop damage, phytotoxicity rating (0-100 scale) ([3]; 125 g ai/ha): 80
RICE crop damage, phytotoxicity rating (0-100 scale) ([3]; 250 g ai/ha): 80
ECHCG phytotoxicity rating (0-100 scale) ([4]; 125 g ai/ha): 60
ECHCG phytotoxicity rating (0-100 scale) ([4]; 250 g ai/ha): 98
CHEAL phytotoxicity rating (0-100 scale) ([5]; 125 g ai/ha): 100
CHEAL phytotoxicity rating (0-100 scale) ([5]; 250 g ai/ha): 100
AMARE phytotoxicity rating (0-100 scale) ([6]; 125 g ai/ha): 100
AMARE phytotoxicity rating (0-100 scale) ([6]; 250 g ai/ha): 100
AMBEL phytotoxicity rating (0-100 scale) ([7]; 125 g ai/ha): 35
AMBEL phytotoxicity rating (0-100 scale) ([7]; 250 g ai/ha): 25
DIGSA phytotoxicity rating (0-100 scale) ([8]; 125 g ai/ha): 99
DIGSA phytotoxicity rating (0-100 scale) ([8]; 250 g ai/ha): 100
ABUTH phytotoxicity rating (0-100 scale) ([9]; 125 g ai/ha): 85
ABUTH phytotoxicity rating (0-100 scale) ([9]; 250 g ai/ha): 100
IPOHE phytotoxicity rating (0-100 scale) ([10]; 125 g ai/ha): 0
IPOHE phytotoxicity rating (0-100 scale) ([10]; 250 g ai/ha): 0
CASOB phytotoxicity rating (0-100 scale) ([11]; 125 g ai/ha): 0
CASOB phytotoxicity rating (0-100 scale) ([11]; 250 g ai/ha): 25
SORHA phytotoxicity rating (0-100 scale) ([12]; 125 g ai/ha): 95
SORHA phytotoxicity rating (0-100 scale) ([12]; 250 g ai/ha): 98
SETVI phytotoxicity rating (0-100 scale) ([13]; 125 g ai/ha): 100
SETVI phytotoxicity rating (0-100 scale) ([13]; 250 g ai/ha): 100
SOY crop damage, phytotoxicity rating (0-100 scale) ([14]; 125 g ai/ha): 0
SOY crop damage, phytotoxicity rating (0-100 scale) ([14]; 250 g ai/ha): 0
RICE crop damage, phytotoxicity rating (0-100 scale) ([15]; 125 g ai/ha): 25
RICE crop damage, phytotoxicity rating (0-100 scale) ([15]; 250 g ai/ha): 35
CORN crop damage, phytotoxicity rating (0-100 scale) ([16]; 125 g ai/ha): 0
CORN crop damage, phytotoxicity rating (0-100 scale) ([16]; 250 g ai/ha): 0
ECHCG phytotoxicity rating (0-100 scale) ([17]; 125 g ai/ha): 60
ECHCG phytotoxicity rating (0-100 scale) ([17]; 250 g ai/ha): 65
CHEAL phytotoxicity rating (0-100 scale) [18, 27]: 100
CHEAL phytotoxicity rating (0-100 scale) [18, 28]: 100
AMARE phytotoxicity rating (0-100 scale) [19, 27]: 100
AMARE phytotoxicity rating (0-100 scale) [19, 28]: 100
AMBEL phytotoxicity rating (0-100 scale) [20, 27]: 60
AMBEL phytotoxicity rating (0-100 scale) [20, 28]: 75
DIGSA phytotoxicity rating (0-100 scale) ([21]; 125 g ai/ha): 0
DIGSA phytotoxicity rating (0-100 scale) ([21]; 250 g ai/ha): 25
ABUTH phytotoxicity rating (0-100 scale) ([22]; 125 g ai/ha): 100
ABUTH phytotoxicity rating (0-100 scale) ([22]; 250 g ai/ha): 100
IPOHE phytotoxicity rating (0-100 scale) ([23]; 125 g ai/ha): 100
IPOHE phytotoxicity rating (0-100 scale) ([23]; 250 g ai/ha): 100
CASOB phytotoxicity rating (0-100 scale) [24, 27]: 70
CASOB phytotoxicity rating (0-100 scale) [24, 28]: 95
SORHA phytotoxicity rating (0-100 scale) ([25]; 125 g ai/ha): 0
SORHA phytotoxicity rating (0-100 scale) ([25]; 250 g ai/ha): 30
SETVI phytotoxicity rating (0-100 scale) [26, 27]: 90
SETVI phytotoxicity rating (0-100 scale) [26, 28]: 90
